Data: patent publication US12018020B2, “Crystalline forms of 1-[(3R,4S)-4-cyanotetrahydropyran-3-yl]-3-[(2-fluoro-6-methoxy-4-pyridyl)amino]pyrazole-4-carboxamide” (Intervet Inc., priority 2018, dated 2024)
Values after ≈ are worked out from the molar mass of the structure shown. Where two headings read alike, the source gives them in different places.

Legend:
Format in all cases: physicochemical
[1] = Slurry form-conversion experiments in organic solvents (relative thermodynamic stability)
Text: Form 1 and Form 2 are monotropically related.
This is evidence that Form 1 is more thermodynamically stable than Form 2.

[2] = Storage stability (processability assessment), 12 months
Text: There is a risk of Form 2 conversion to hydrate at the typical wet granulation temperature when seeds of hydrate are present.

[3] = Solubility in 7/3 v/v toluene/MeOH
[4] = Conversion to hydrate risk: slurry in 5% SLS aqueous solution seeded with 5% hydrate seeds, PXRD; settings: 20 mg/mL in 5% SLS aqueous solution, 24 hours
Method: Slurry experiments in water containing 5% SLS were used to assess the risk of form conversion during wet granulation. Typical wet granulation conditions include drying at 60 to 70° C. for 1.5 to 2 hours.
Slurries containing 20 mg/mL of either Form 1 or Form 2 in 5% sodium lauryl sulfate (SLS) aqueous solution were seeded with 5% hydrate seeds and monitored for form change with PXRD over 24 hours at room temperature and at 80° C.

[5] = 40° C./75% relative humidity (RH)

For `COc1cc(Nc2nn([C@H]3COCC[C@@H]3C#N)cc2C(N)=O)cc(F)n1` [Form 1, 1-[(3R,4S)-4-cyanotetrahydropyran-3-yl]-3-[(2-fluoro-6-methoxy-4-pyridyl)amino]pyrazole-4-carboxamide], the Relative thermodynamic stability ([1]; Form 1 versus Form 2, monotropically related) was “more stable than Form 2”, the Form after slurry ([1]; slurried in MeOH, 3 weeks, room temperature) was “remained as Form 1” and the “Physical and chemical stability on storage” value [2, 5] was “physically and chemically stable”. For the same compound, the “Physical and chemical stability on storage” value ([2]; 55° C.) was “physically and chemically stable”, the solubility ([3]; 25 °C, organic solvent or mixture, 25 °C, read-out: Solubility) was 3.4 mg/mL (≈ 9.44 mM) and the solubility ([3]; 40 °C, organic solvent or mixture, 40 °C, read-out: Solubility) was 6.6 mg/mL (≈ 18.3 mM). For the same compound, the solubility ([3]; 60 °C, organic solvent or mixture, 60 °C, read-out: Solubility) was 12.5 mg/mL (≈ 34.7 mM), the “Hydrate peak growth (PXRD)” value ([4]; 80° C.) was “No hydrate peak growth observed” and the “Hydrate peak growth (PXRD)” value ([4]; room temperature) was “No hydrate peak growth observed”.
With `COc1cc(Nc2nn([C@H]3COCC[C@@H]3C#N)cc2C(N)=O)cc(F)n1` [Form 2, 1-[(3R,4S)-4-cyanotetrahydropyran-3-yl]-3-[(2-fluoro-6-methoxy-4-pyridyl)amino]pyrazole-4-carboxamide] the “Form conversion in slurry seeded with Form 1” value ([1]; 2-Me-THF, Ethyl Acetate, MeOH or MeOH/toluene (70:30 v/v), 50° C., seeded with Form 1 at 14 days, 28 days total) was “full or conversion to Form 1”, the “Form conversion in slurry” value ([1]; Ethyl Acetate and Isopropyl Acetate, 25° C., after 28 days) was “Partial conversion” and the “Form conversion in competitive slurry” value ([1]; ~10 mg each of Form 1 and Form 2 in 1 mL MeOH, 50° C., after 4 days) was “full conversion to Form 1”. The “Physical and chemical stability on storage” value [2, 5] was “physically and chemically stable”, the “Physical and chemical stability on storage” value ([2]; 55° C.) was “physically and chemically stable” and the solubility ([3]; 25 °C) was 4.7 mg/mL (≈ 13 mM). For the same compound, the solubility ([3]; 40 °C) was 9.3 mg/mL (≈ 25.8 mM), the solubility ([3]; 60 °C) was 15.6 mg/mL (≈ 43.3 mM) and the “Hydrate peak growth (PXRD)” value ([4]; 80° C.) was “no hydrate peak growth was observed”. For the same compound, the “Hydrate peak growth (PXRD)” value ([4]; room temperature) was “hydrate peak growth was observed”.
With `COc1cc(Nc2nn([C@H]3COCC[C@@H]3C#N)cc2C(N)=O)cc(F)n1` [Hydrate, 1-[(3R,4S)-4-cyanotetrahydropyran-3-yl]-3-[(2-fluoro-6-methoxy-4-pyridyl)amino]pyrazole-4-carboxamide] the Relative thermodynamic stability ([1]; in aqueous solutions) was “most stable form in aqueous solutions”.
